# Experimental data as given in PMC2680961, “Homologous desensitization of signalling by the alpha (α) isoform of the human thromboxane A2 receptor: A specific role for nitric oxide signalling” (Biochimica et Biophysica Acta, 2007).
# Residue numbers refer to the chain shown, from its start.
# Experiments:
# TPα = target: T1, TPα (Homo sapiens, UniProt P21731); assay: Intracellular calcium mobilization, HEK.TPα cells; format: cell-based; settings: HEK.TPα
# T1 construct: expressed in transfected cells
# T1 sequence (P21731 1-343): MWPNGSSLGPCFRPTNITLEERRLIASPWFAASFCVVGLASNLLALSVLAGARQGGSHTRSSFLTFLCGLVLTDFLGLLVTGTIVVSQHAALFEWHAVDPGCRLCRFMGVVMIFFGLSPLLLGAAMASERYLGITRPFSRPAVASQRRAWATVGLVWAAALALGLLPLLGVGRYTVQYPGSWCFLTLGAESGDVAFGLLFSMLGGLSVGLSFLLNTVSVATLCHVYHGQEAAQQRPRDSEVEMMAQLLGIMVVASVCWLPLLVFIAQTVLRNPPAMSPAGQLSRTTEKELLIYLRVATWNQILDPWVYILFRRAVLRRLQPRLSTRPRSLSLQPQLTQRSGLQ
# Experimental: (§1) Measurement of intracellular calcium mobilization ([Ca^2+]i) in FURA2/AM preloaded HEK 293 cell lines (2 × 10^6 cells/dish), each transiently co-transfected with pADVA (10 μg), and pCMV:Gαq (25 μg), was carried out as previously described. To investigate the effect of GRK2/βARK1 on TP-mediated [Ca^2+]i mobilization, HEK.TPα or HEK.TPβ cells (2 × 10^6 cells/dish) were co-transfected with pADVA (10 μg), pCMV:Gαq (25 μg) along with pRK5:βARK1^495–689 (25 μg), encoding a dominant negative form of GRK2/βARK1[39]. Approximately 48 h post-transfection, cells were harvested by scraping, washed twice in ice-cold PBS and resuspended in HBSSHB (modified Ca^2+/Mg^2+-free Hank's buffered salt solution, containing […], pH 7.67, 0.1% bovine serum albumin (BSA)) buffer at 10^7 cells/ml and incubated in the dark with 5 μM FURA2/AM for 45 min at 37 °C. Cells were collected by centrifugation (900×g, 5 min), washed once in an equal volume of HBSSHB, and were finally resuspended in HBSSHB buffer at 10^7 cells/ml and kept at room temperature in the dark for 40 min. For each measurement of [Ca^2+]i mobilization, aliquots of cells were diluted to 0.825 × 10^6 cells/ml in HBSSHB, 1 mM CaCl2 and FURA2 fluorescence was recorded (2 ml aliquots of cells) at 37^ °C with gentle stirring with a Perkin Elmer-Cetus LS50-B spectrofluorometer at excitation wavelengths of 340 nm and 380 nm and emission wavelength of 510 nm, respectively.
# […] To assess agonist-mediated homologous desensitization, cells (0.825 × 10^6 cells/ml; 2 ml per assay) were stimulated with 1 μM U46619 (Primary stimulation) or, as a control, with the vehicle for 4 min; thereafter, cells were collected by centrifugation (900×g, 5 min); were washed twice in 2 ml HBSSHB, 1 mM CaCl2; and finally resuspended in 2 ml HBSSHB,1 mM CaCl2 and were left to recover over various time intervals (ranging from 0 to 60 min); thereafter, cells re-stimulated with 1 μM U46619 (Secondary stimulation) and changes in [Ca^2+]i mobilization were monitored as a function of time. To assess the role of protein kinase (PK) A, PKC or PKG on U46619-mediated desensitization of TPα signalling, cells were pre-incubated with the PKA inhibitor H-89 (10 μM), the PKC inhibitor GF 109203X (50 nM) or the PKG inhibitor KT 5823 (50 nM), for 15 min and respective kinase inhibitors were maintained throughout the primary/secondary U46619-stimulations and during the washes.
# The vehicle had no effect on U46619-mediated [Ca^2+]i mobilization. Calibration of the signal was performed in each sample by adding 0.2% Triton X-100 to obtain the maximal fluorescence ratio (Rmax) and then 1 mM EGTA to obtain the minimal fluorescence ratio (Rmin). The ratio of the fluorescence at 340 nm to that at 380 nm is a measure of [Ca^2+]i, which assumes a Kd of 225 nM Ca^2+ for FURA2/AM. The results presented in the figures are representative data from at least three or four independent experiments and are plotted as changes in Ca^2+i mobilized (Δ[Ca^2+]i (nM)) as a function of time (s) upon ligand stimulation. Changes in [Ca^2+]i mobilization were determined by measuring peak rises in [Ca^2+]i mobilized (Δ[Ca^2+]i) and were calculated as mean changes in Δ[Ca^2+]i ± S.E.M. (nM).
# TPα^S145A = target: T2, TPα^S145A (Homo sapiens, UniProt P21731, S145A); assay: Intracellular calcium mobilization, HEK.TPα^S145A cells; format: cell-based; settings: for Δ[Ca2+]i, U46619-induced: HEK.TPα^S145A
# T2 construct: expressed in transfected cells
# T2 sequence (P21731 1-343 S145A): T1 sequence (P21731 1-343) with S145A
# Experimental: as §1, with “Cells were collected by centrifugation (900×g, 5 min), washed once in an equal volume of HBSSHB, and were finally resuspended in HBSSHB buffer at 10^7 cells/ml and kept at room temperature in the dark for 40 min.” left out
# Cells were stimulated with the TP agonist U46619 (1 μM) and changes in [Ca^2+]i mobilization were monitored as a function of time. To assess agonist-mediated homologous desensitization, cells (0.825 × 10^6 cells/ml; 2 ml per assay) were stimulated with 1 μM U46619 (Primary stimulation) or, as a control, with the vehicle for 4 min; thereafter, cells were collected by centrifugation (900×g, 5 min); were washed twice in 2 ml HBSSHB, 1 mM CaCl2; and finally resuspended in 2 ml HBSSHB,1 mM CaCl2 and were left to recover over various time intervals (ranging from 0 to 60 min); thereafter, cells re-stimulated with 1 μM U46619 (Secondary stimulation) and changes in [Ca^2+]i mobilization were monitored as a function of time. […]
smiles,measurement,setting,value
CCCCC[C@H](O)/C=C/[C@@H]1[C@@H](C/C=C\CCCC(=O)O)[C@H]2CO[C@@H]1C2 [U46619],"Δ[Ca2+]i, U46619-induced","TPα; + GRK^DN (βARK1^495–689), primary 1 μM U46619",150 ± 7.5 nM
same,"Δ[Ca2+]i, U46619-induced","TPα; + GRK^DN, secondary 1 μM U46619 at 15 min",0 nM
same,"Δ[Ca2+]i, U46619-induced","TPα; primary stimulation, 1 μM U46619 4 min",174 ± 8.8 nM
same,"Δ[Ca2+]i, U46619-induced","TPα; secondary stimulation 1 μM U46619 at 15 min after primary, after washout",0 nM
same,"Δ[Ca2+]i, U46619-induced","TPα; secondary stimulation 1 μM U46619 at 60 min after primary, after washout",0 nM
same,"Δ[Ca2+]i, U46619-induced","TPα; vehicle as primary stimulation, washout, 1 μM U46619 at 60 min",191.5 ± 25.5 nM
same,"Δ[Ca2+]i, U46619-induced","TPα; − GRK^DN (pRK5 control), primary 1 μM U46619",165 ± 9 nM
same,"Δ[Ca2+]i, U46619-induced","TPα; − GRK^DN, secondary 1 μM U46619 at 15 min",0 nM
same,"Δ[Ca2+]i, U46619-induced",TPα^S145A; primary 1 μM U46619 4 min,157 ± 3.8 nM
same,"Δ[Ca2+]i, U46619-induced",TPα^S145A; secondary 1 μM U46619 at 15 min,37 ± 4.2 nM
same,secondary U46619 [Ca2+]i response relative to primary response,TPα^S145A; TPα^S145A,24%
